Data set [1] deals with aromatase cells in the amygdala. The data set can be described thus: Patch clamping of aromatase cells in the amygdala in brain slices of treated mice. In kind it is in vivo, mouse. From the text: After behaviour studies, the animals were sacrificed and electrophysiological data were gathered from the brain slices by patch clamping of aromatase cells in the amygdala.
For the next data set, the system named is aromatase. The data set can be described thus: Aromatase immunohistochemistry in human neuroblastoma SH-SY5Y cells exposed to BPA with or without 10-HDA. The data set is classed as cell-based. Particulars: for effect on BPA-induced changes of aromatase expression pattern and neurites: 25 μg/L BPA + 1 mM 10 HDA. The method, then: FIG. 1: Effects of BPA and 10-HDA on aromatase expression in human neuroblastoma SH-SY5Y cells. Under normal conditions, SH-SY5Y cells express aromatase which is a membrane bound protein in endoplasmic reticulum, and appears as green punctate staining eventually distributed within the cell by immunohistochemistry. In the presence of 25 μg/L bisphenol A the aromatase became aggregates. The effects of bisphenol A can be ameliorated by addition of 10HDA. (a) +0 μg/L BPA (Vehicle)—Clear staining of aromatase (green) evenly distributed in the cytoplasm and along the neurites, as tiny “dots”. A lot of healthy cells evenly distributed over the surface area of the coverslip. B-tubulin (red) is highly expressed throughout the cytoplasm and neurites. […] A decrease in 13-tubulin expression was also observed in most cells that have lost their neurites. […] (c) +25 μg/L BPA+1 mM 10 HDA—Good neurite growth and even aromatase distribution throughout the cytoplasm was observed.
Human neuroblastoma SHY-SY-5Y cells were cultured were cultured in Dulbecco's Modified Eagle Medium supplemented with 10% heat-inactivated Fetal Bovine Serum, 1% penicillin and 1% L-Glutamine at 37° C. in a humidified atmosphere of 95% air and 5% CO2. The localization of aromatase in these cells can be detected using immunohistochemistry with antibody specific to aromatase. Under normal conditions, aromatase appears as punctuate staining throughout the cells, as it is a membrane bound protein in the endoplasmic reticulum.

The subject of data set [2] is differentiated mouse motor neuronal NSC-34 cells. In words: Protection of NSC-34 cells from toxic BPA exposure, MTT assay. In kind it is cell-based. Conditions: 1 mM compound, 500 ng/ml of BPA, MTT assay 72 hours later. The method, then:
To compare the respective activities of trans and cis 10-HDA 1 mM respectively of cis or trans 10-HDA in the presence of 500 ng/ml of BPA (toxic level) was added to differentiated mouse motor neuronal NSC-34 cells. Cell survival was determined by MTT assay 72 hours later.

Another data set deals with BPA exposed mice. In words: 10-HDA treatment of BPA exposed mice: social interaction and spontaneous grooming. In kind it is in vivo, mouse. The method, then:
As described in Example 2, mice with autistic-like behaviour were generated by mating female wild type FVBN mice with male CYP19-GFP mice and followed by subcutaneous injection of 50 […] of BPA on gestational days 10.5 to 14.5.
After weaning, control and BPA exposed pups were administered 10-HDA daily (0 and 500 μg/kg/day; dissolved in saline) by intraperitoneal injection for a maximum period of 6 weeks. Six litters were initially studied after 3 weeks of daily treatment for anxiety, memory, social interaction (FIG. 4A) and spontaneous grooming.
Data collection was conducted by investigators who were blind to the respective genotypes or treatment of any given animal. Two criteria were assessed as the basis for the behavioural studies, social interaction, and spontaneous grooming activity.
(§1) With regard to the social interaction study, the test mouse was placed in a social test box, a three-chambered clear plastic box with doorways in the dividing walls to allow access into each chamber. Each side-chamber contained a wire cage. The test mouse was evaluated over three sessions. In session 1, the test mouse was placed in the middle chamber and allowed to explore all 3 chambers for 10 min. In session 2, an unfamiliar same sex and age mouse (stranger 1) was enclosed in the wire cage either side of the central chamber, and the test mouse was allowed to explore the entire social test box for a period of 10 min. In session 3, a new unfamiliar mouse was placed in the previously empty wire cage such that the test mouse has a choice between the first, now familiar, already-investigated mouse (stranger 1) and the novel unfamiliar mouse (stranger 2). Mouse movements were recorded and tracked using the TopScan video tracking system. Durations in each chamber, time spent sniffing each wire cage, and the number of transitions between chambers were analysed.
Spontaneous Grooming activity was used as a measure of repetitive activity. The spontaneous grooming of the mice were recorded by the TopScan video tracking system during the session 1 or the 3 chamber studies described above. The duration and frequency of grooming were the parameters of measurements and analysed blind.
The male animals were then re-administered with either vehicle or 10-HDA as described above for 3 weeks, and subjected to behavioural studies again (FIG. 4C).

The subject of another data set is primary cortical culture. In words: Primary cortical cell cultures of male mouse embryonic foetuses: dendritic length and spine densities. The data set is classed as cell-based. The method, then:
Primary cortical culture was prepared from male mouse foetuses at embryonic day 15.5. Specifically, the effects of BPA and 10-HDA on dendritic length and spine densities were assessed. Four test groups were assessed, mice treated with BPA, mice treated with 10-HDA, mice treated with BPA and 10-HDA, and a vehicle control. Ten neurons were measured and the experiments were duplicated.

In data set [3] the test system is neurons in the somatosensory cortex. The data set can be described thus: Dendritic length of neurons in the somatosensory cortex of treated mice. Particulars: BPA exposed mice with 10-HDA treatment. In kind it is in vivo, mouse.
The next data set deals with mice. In words: In utero BPA exposure of mice: offspring social interaction and stereology neuron counts. The data set is classed as in vivo, mouse. The method, then: BPA (50 μg/kg) was thus administered to pregnant mice mid-gestation (i.e. embryonic days 10.5 to 14.5). […] A further study was conducted to examine the effects of BPA exposure on numbers of aromatase-GFP positive neurons in utero (FIG. 3). The medial amygdala is involved in social interaction and highly expressed aromatase.
as §1

Where [4] appears, read: BPA, male mouse embryonic day 15.5 cortical neurons.

Structures are written as SMILES. “Also recorded” adds a separate entry of the source.

In the case of `O=C(O)/C=C/CCCCCCCO` [10-HDA, 10-hydroxy-2-decenoic acid], the “resistance of the neurons” value in data set [1] (BPA exposed mice with 10-HDA treatment) is reported as “restored resistance to normal”. For the same molecule, the “effect on BPA-induced changes of aromatase expression pattern and neurites” value in the data set on aromatase (SH-SY5Y cells) was “can protect against the denaturing effect of bisphenol A on aromatase”; in the data set on aromatase (SH-SY5Y cells, listed as 10HDA), “ameliorates the effects of BPA on the expression pattern of aromatase and neurites”. In addition, the “cell survival (protection against BPA toxicity)” value in data set [2] is listed as “exhibits neuroprotective effects”. In addition, in the data set with BPA exposed mice (BPA exposed animals, 10-HDA 500 μg/kg/day intraperitoneal daily, 3 weeks), the “social interaction deficit and autistic-like behaviour” value was “could ameliorate the social interaction deficit and autistic-like behaviour”. In the data set with BPA exposed mice (BPA exposed male offspring, 10-HDA treatment 3 weeks), the excessive grooming result is listed as “ameliorated”. Besides, the “social interaction after treatment withdrawal” value with BPA exposed mice (BPA-exposed male animals, treatments withdrawn for 3 months) is reported as “withdrawal led to presentation of social interaction deficit”. The “effect against BPA on spine density and dendritic length” value in the data set on primary cortical culture (BPA and 10-HDA) is on record as “reverse or protect against the effect of BPA”. Also, the “neurites and spines formation” value with primary cortical culture (primary cortical culture) is “has the capacity to stimulate neurites and spines formation”. Moreover, the “dendritic length of the neurons” value in data set [3] is recorded as “restored the dendritic length of the neurons in the somatosensory cortex to normal length”.

For the molecule `CC(C)(c1ccc(O)cc1)c1ccc(O)cc1` [BPA, bisphenol A], in data set [1] (BPA exposure, patch clamping of brain slices), the “resistance of the neurons” value is on record as “reduced the resistance of the neurons”. In addition, in the data set on aromatase (25 μg/L BPA, SH-SY5Y cells), the neurites entry is “Some populations of cells are starting to lose their neurites”. In the data set with aromatase (25 μg/L BPA, SH-SY5Y cells that have lost their neurites), the β-tubulin expression entry is given as “decrease”. Further, the aromatase localization/staining pattern result with aromatase (25 μg/L BPA, SH-SY5Y cells, immunohistochemistry) was “aromatase forms aggregate and will lose its function; also recorded: could denature aromatase in vitro; also recorded: Aromatase aggregates start to form”. In the data set on BPA exposed mice (50 μg/kg/day of BPA exposed male offspring), the grooming result was “excessive grooming”. In addition, the ASD-like behaviours result with mice (BPA 50 μg/kg to pregnant mice embryonic days 10.5 to 14.5, WT male offspring) is listed as “exhibit ASD-like behaviours”. Moreover, the “time spent with the stranger mice (social interaction)” value with mice (BPA 50 μg/kg to pregnant mice embryonic days 10.5 to 14.5, male offspring vs vehicle exposed male or BPA exposed female offspring) is “significantly less time”. Also, the “numbers of aromatase-GFP positive neurons” value with mice (BPA exposure in utero, standard Stereology method) is reported as “significantly reduced”. Moreover, the “fewer neurons in the medial amygdala” value in the data set with mice (male offspring exposed to BPA) was determined as 13.5%. In addition, in the data set with primary cortical culture (setting [4]), the “dendritic length of neurons” value is “decreased” and the spine density result was “decreased”.

Take `O=C(O)/C=C\CCCCCCCO` [cis 10-HDA]: the “cell survival (protection against BPA toxicity)” value in data set [2] is recorded as “does not protect against BP toxicity”.

Source of the values: US10933043B2, “Methods of treating neurodevelopmental diseases and disorders” (Deakin University, priority 2014, dated 2021).
